According to ChEMBL document CHEMBL1201862, “PubChem BioAssay data set” (2004):
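Tested at 5 concentrations; 48 h exposure; 96-well plates; endpoints linearly interpolated, else capped at highest concentration. At the GI50, growth is halved.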 Calls of active or inactive are those of the source. No stated cut-off is given here; in the data, active = GI50 up to about 1.1 µM and inactive = higher.

Experiments:
Assay in all cases: growth of human tumour cells (NCI), 48 h
A498 = test system: A498
ACHN = test system: ACHN
DU-145 = test system: DU-145
EKVX = test system: EKVX
HCT-116 = test system: HCT-116
MCF7 = test system: MCF7
MDA-MB-231 = test system: MDA-MB-231
MDA-MB-435 = test system: MDA-MB-435
MDA-N = test system: MDA-N
MOLT-4 = test system: MOLT-4
NCI-H460 = test system: NCI-H460
OVCAR-8 = test system: OVCAR-8
RXF 393 = test system: RXF 393
SF-268 = test system: SF-268
SF-295 = test system: SF-295
SF-539 = test system: SF-539
SK-MEL-5 = test system: SK-MEL-5
SNB-75 = test system: SNB-75
U-251 = test system: U-251
UACC-257 = test system: UACC-257

SMILES | GI50 (A498) | GI50 (ACHN) | GI50 (DU-145) | GI50 (EKVX) | GI50 (HCT-116) | GI50 (MCF7) | GI50 (MDA-MB-231) | GI50 (MDA-MB-435) | GI50 (MDA-N) | GI50 (MOLT-4) | GI50 (NCI-H460) | GI50 (OVCAR-8) | GI50 (RXF 393) | GI50 (SF-268) | GI50 (SF-295) | GI50 (SF-539) | GI50 (SK-MEL-5) | GI50 (SNB-75) | GI50 (U-251) | GI50 (UACC-257)
CCN(CC)CCNc1ccc2ncn3c4c(OC)cccc4c(=O)c1c23 | 13.9 µM (inactive) | 3.38 µM (inactive) | 4.5 µM (inactive) | 4.15 µM (inactive) | 0.54 µM (active) | 2.47 µM (inactive) | 7.55 µM (inactive) | 6.58 µM (inactive) | 4.27 µM (inactive) | 0.912 µM (active) | 3 µM (inactive) | 6.38 µM (inactive) | 2.45 µM (inactive) | 3.92 µM (inactive) | 10.4 µM (inactive) | 3.78 µM (inactive) | 2.38 µM (inactive) | 11.3 µM (inactive) | 4.89 µM (inactive) | 21.1 µM (inactive)
O=C(Nc1ccc2nc(-c3ccccc3)cn2c1)Oc1ccccc1 | 71.3 µM (inactive) | > 100 µM (inactive) | 41.7 µM (inactive) | 80 µM (inactive) | 45.9 µM (inactive) | 35.4 µM (inactive) | > 100 µM (inactive) | 13.9 µM (inactive) | 14 µM (inactive) | 40.6 µM (inactive) | 33.1 µM (inactive) | 59.7 µM (inactive) | 0.893 µM (active) | > 100 µM (inactive) | 57.9 µM (inactive) |  | 59.7 µM (inactive) | 2.99 µM (inactive) | 52.7 µM (inactive) | 36.1 µM (inactive)
CC1OC(OC2C(OC(=O)[C@]34CCC(C)(C)C[C@H]3C3=CC[C@@H]5[C@@]6(C)CC[C@H](OC7OC(C(=O)O)C(O)C(O)C7O)C(C)(C)[C@@H]6CC[C@@]5(C)[C@]3(C)C[C@H]4O)OCC(O)C2O)C(O)C(OC2OCC(O)(CO)C2O)C1OC1OCC(O)C(O)C1O (stereo partly specified) | 1.83 µM (inactive) | 5.15 µM (inactive) | 12.9 µM (inactive) | 4.3 µM (inactive) | 7.19 µM (inactive) | 6.17 µM (inactive) | 3.43 µM (inactive) | 6.59 µM (inactive) | 4.31 µM (inactive) | 13.6 µM (inactive) | 18.2 µM (inactive) | 17.1 µM (inactive) | 15.2 µM (inactive) | 17.9 µM (inactive) | 11.9 µM (inactive) |  | 14.8 µM (inactive) | 17.7 µM (inactive) | 9.64 µM (inactive) | 11.1 µM (inactive)
c1ccc([P+](Cc2ccc(C[P+](c3ccccc3)(c3ccccc3)c3ccccc3)cc2)(c2ccccc2)c2ccccc2)cc1 | > 100 µM (inactive) | > 100 µM (inactive) | 86.3 µM (inactive) | 21.8 µM (inactive) | 12.4 µM (inactive) | 51.4 µM (inactive) | 61.8 µM (inactive) | 42.7 µM (inactive) | 31 µM (inactive) | > 100 µM (inactive) | 12.4 µM (inactive) | 45.8 µM (inactive) | 61.4 µM (inactive) | > 100 µM (inactive) | 35.6 µM (inactive) | 31.2 µM (inactive) | 27.2 µM (inactive) | 29.6 µM (inactive) | 21.2 µM (inactive) | 37.1 µM (inactive)
C=CC(C1=CC(=O)C(OC)=CC1=O)c1ccccc1 (stereo unspecified) [4-METHOXYDALBERGIONE] | > 51.2 µM (inactive) | 14.3 µM (inactive) | 16.5 µM (inactive) | 16.1 µM (inactive) | 8.81 µM (inactive) | 7.48 µM (inactive) | 6.97 µM (inactive) | 13.8 µM (inactive) | 13.8 µM (inactive) | 2.16 µM (inactive) | 17.1 µM (inactive) | 20.5 µM (inactive) | 15.6 µM (inactive) | 16.3 µM (inactive) | 12.2 µM (inactive) | 14.2 µM (inactive) | 16.3 µM (inactive) | 18.1 µM (inactive) | 15.6 µM (inactive) | 19.2 µM (inactive)
O=C(O)CC(C(=O)O)c1ccccc1[N+](=O)[O-] (stereo unspecified) | > 100 µM (inactive) | > 100 µM (inactive) | > 100 µM (inactive) | > 100 µM (inactive) | > 100 µM (inactive) | > 100 µM (inactive) | > 100 µM (inactive) | > 100 µM (inactive) | > 100 µM (inactive) |  | > 100 µM (inactive) | > 100 µM (inactive) | > 100 µM (inactive) | > 100 µM (inactive) | > 100 µM (inactive) |  | > 100 µM (inactive) | > 100 µM (inactive) | > 100 µM (inactive) | > 100 µM (inactive)
c1cc(-c2cnc(-c3ccc4c(c3)CCCO4)o2)ccn1 | 12.3 µM (inactive) | 14 µM (inactive) | 11.3 µM (inactive) | 17.7 µM (inactive) | 16.7 µM (inactive) | 14.7 µM (inactive) | 16.2 µM (inactive) | 15.1 µM (inactive) | 14.7 µM (inactive) | 5.62 µM (inactive) |  | 13.8 µM (inactive) | 13.5 µM (inactive) | 15.6 µM (inactive) | 20 µM (inactive) | 9.1 µM (inactive) | 12.6 µM (inactive) | 12.2 µM (inactive) | 16.7 µM (inactive) | 15.1 µM (inactive)
Cc1sc2nc3n(c(=O)c2c1C)N=CN(c1ccccc1)C3 | > 100 µM (inactive) | 59.3 µM (inactive) | > 100 µM (inactive) | > 100 µM (inactive) | > 100 µM (inactive) | > 100 µM (inactive) | 68.1 µM (inactive) | > 100 µM (inactive) | > 100 µM (inactive) | > 100 µM (inactive) | > 100 µM (inactive) | 68.9 µM (inactive) | 37.1 µM (inactive) | 23.4 µM (inactive) | 84.9 µM (inactive) |  | > 100 µM (inactive) | 35.9 µM (inactive) | 52.4 µM (inactive) | > 100 µM (inactive)
c1ccc2nc(CCC3CCCCN3)ccc2c1 (stereo unspecified) | 77.6 µM (inactive) | > 100 µM (inactive) | > 100 µM (inactive) | 42.2 µM (inactive) | > 100 µM (inactive) | > 100 µM (inactive) | > 100 µM (inactive) | 97.7 µM (inactive) | 87.7 µM (inactive) |  | 87.9 µM (inactive) | > 100 µM (inactive) | > 100 µM (inactive) | > 100 µM (inactive) | 53 µM (inactive) |  | 38.2 µM (inactive) | 92.3 µM (inactive) | > 100 µM (inactive) | 42.7 µM (inactive)
CC(C)C(=O)C(C)(C)CCc1ccccn1 | > 100 µM (inactive) | > 100 µM (inactive) | > 100 µM (inactive) | > 100 µM (inactive) | > 100 µM (inactive) | > 100 µM (inactive) | > 100 µM (inactive) | > 100 µM (inactive) | > 100 µM (inactive) |  | > 100 µM (inactive) | > 100 µM (inactive) | > 100 µM (inactive) | > 100 µM (inactive) | > 100 µM (inactive) |  | > 100 µM (inactive) | > 100 µM (inactive) | > 100 µM (inactive) | > 100 µM (inactive)
CCCN1CC=C(c2cc(C(=O)OCC)[nH]c2-c2cc(C)no2)C1=O | > 100 µM (inactive) |  | > 100 µM (inactive) | > 100 µM (inactive) | > 100 µM (inactive) | > 100 µM (inactive) | > 100 µM (inactive) | > 100 µM (inactive) | > 100 µM (inactive) | 53.6 µM (inactive) | > 100 µM (inactive) | > 100 µM (inactive) | > 100 µM (inactive) | > 100 µM (inactive) | > 100 µM (inactive) | > 100 µM (inactive) | > 100 µM (inactive) | 30.8 µM (inactive) | > 100 µM (inactive) | > 100 µM (inactive)
C=CCN1CC2CN=NC2(C#N)C1 (stereo unspecified) | > 100 µM (inactive) | > 100 µM (inactive) | > 100 µM (inactive) | > 100 µM (inactive) | > 100 µM (inactive) | > 100 µM (inactive) | > 100 µM (inactive) | > 100 µM (inactive) | > 100 µM (inactive) | > 100 µM (inactive) | > 100 µM (inactive) | > 100 µM (inactive) | > 100 µM (inactive) | > 100 µM (inactive) | > 100 µM (inactive) |  | > 100 µM (inactive) | > 100 µM (inactive) | > 100 µM (inactive) | > 100 µM (inactive)
COc1cc2c(cc1OC)C(=O)N(c1ccc(OCCN3CCCC3)cc1)C2=O | > 100 µM (inactive) | > 100 µM (inactive) | > 100 µM (inactive) | > 100 µM (inactive) | > 100 µM (inactive) | > 100 µM (inactive) | > 100 µM (inactive) | > 100 µM (inactive) | > 100 µM (inactive) | > 100 µM (inactive) | > 100 µM (inactive) | > 100 µM (inactive) | > 100 µM (inactive) | > 100 µM (inactive) | > 100 µM (inactive) | > 100 µM (inactive) | > 100 µM (inactive) |  | > 100 µM (inactive) | > 100 µM (inactive)
Cc1nc(N)nc(S)c1CCC(=O)O | > 100 µM (inactive) | > 100 µM (inactive) | > 100 µM (inactive) | > 100 µM (inactive) | > 100 µM (inactive) | > 100 µM (inactive) | > 100 µM (inactive) | > 100 µM (inactive) | > 100 µM (inactive) | > 100 µM (inactive) | > 100 µM (inactive) | > 100 µM (inactive) | > 100 µM (inactive) | > 100 µM (inactive) | > 100 µM (inactive) | > 100 µM (inactive) | > 100 µM (inactive) |  | > 100 µM (inactive) | > 100 µM (inactive)
